These results are taken from US20210122763A1, “OGA INHIBITOR COMPOUNDS” (Janssen Pharmaceutica NV, priority 2018, published 2021).

What is called Emax is the size of the effect at its maximum, as opposed to the concentration needed.

Molecules are shown by their SMILES.

Test [1] has as its target T1, recombinant human Meningioma Expressed Antigen 5 (MGEA5), also referred to as O-GlcNAcase (OGA) (Homo sapiens, UniProt O60502).
T1 construct: Full length OGA enzyme was purchased at OriGene (cat #TP322411); purchased OriGene TP322411
T1 sequence (O60502 1-916): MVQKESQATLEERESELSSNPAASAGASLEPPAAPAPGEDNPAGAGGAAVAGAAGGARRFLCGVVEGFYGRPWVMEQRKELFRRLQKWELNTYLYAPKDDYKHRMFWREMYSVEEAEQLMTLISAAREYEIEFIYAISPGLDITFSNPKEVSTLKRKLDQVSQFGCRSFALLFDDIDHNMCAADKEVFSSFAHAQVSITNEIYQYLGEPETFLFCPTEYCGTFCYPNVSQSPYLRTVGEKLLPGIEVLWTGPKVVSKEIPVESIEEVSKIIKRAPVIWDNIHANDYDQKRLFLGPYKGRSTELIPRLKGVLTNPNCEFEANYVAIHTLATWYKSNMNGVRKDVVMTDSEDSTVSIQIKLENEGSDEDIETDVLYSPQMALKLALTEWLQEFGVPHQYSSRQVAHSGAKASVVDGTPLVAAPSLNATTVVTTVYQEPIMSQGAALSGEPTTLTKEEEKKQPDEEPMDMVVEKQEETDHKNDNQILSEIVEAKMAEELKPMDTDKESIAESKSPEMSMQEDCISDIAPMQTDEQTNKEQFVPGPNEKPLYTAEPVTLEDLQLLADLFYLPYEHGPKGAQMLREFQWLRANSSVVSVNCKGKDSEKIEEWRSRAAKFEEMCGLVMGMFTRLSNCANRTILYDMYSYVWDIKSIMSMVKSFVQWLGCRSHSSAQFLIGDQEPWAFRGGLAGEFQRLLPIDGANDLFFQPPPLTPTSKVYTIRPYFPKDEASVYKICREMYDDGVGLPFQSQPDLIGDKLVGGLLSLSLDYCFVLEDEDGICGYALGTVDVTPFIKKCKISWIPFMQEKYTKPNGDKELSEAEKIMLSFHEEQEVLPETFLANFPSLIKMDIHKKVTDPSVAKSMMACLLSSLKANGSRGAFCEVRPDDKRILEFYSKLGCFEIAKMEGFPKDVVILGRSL
The test is described as follows: OGA biochemical assay (inhibition of FM-GlcNAc hydrolysis, fluorescence). As to conditions: for Emax: read-out: Enzymatic Emax (%); for IC50: read-out: Enzymatic hOGA, pIC50 (converted). From the text:
The assay is based on the inhibition of the hydrolysis of fluorescein mono-B-D-N-Acetyl-Glucosamine (FM-GcNAc) (Mariappa et al. 2015, Biochem J470:255) by the recombinant human Meningioma Expressed Antigen 5 (MGEA5), also referred to as O-GlcNAcase (OGA). The hydrolysis FM-GlcNAc (Marker Gene technologies, cat #M1485) results in the formation of B-D-N-glucosamineacetate and fluorescein. The fluorescence of the latter can be measured at excitation wavelength 485 nm and emission wavelength 538 nm. An increase in enzyme activity results in anincrease in fluorescence signal. Full length OGA enzyme was purchased at OriGene (cat #TP322411). The enzyme was stored in 25 mM Tris.HCl, pH 7.3, 100 mM glycine, 10% glycerol at −20° C. Thiamet G and GlcNAcStatin were tested as reference compounds (Yuzwa et al. 2008 Nature Chemical Biology 4:483; Yuzwa et al. 2012 Nature Chemical Biology 8:393). The assay was performed in 200 mM Citrate/phosphate buffer supplemented with 0.005% Tween-20. 35.6 g Na2HPO4 2H2O (Sigma, #C0759) were dissolved in 1 L water to obtain a 200 mM solution. 19.2 g citric acid (Merck, #1.06580) was dissolved in 1 L water to obtain a 100 mM solution. pH of the sodiumphosphate solution was adjusted with the citric acid solution to 7.2. The buffer to stop the reaction consists of a 500 mM Carbonate buffer, pH 11.0. 734 mg FM-GlcNAc were dissolved in 5.48 mL DMSO to obtain a 250 mM solution and was stored at −20° C. OGA was used at a 2 nM concentration and FM-GcNAc at a 100 uM final concentration. Dilutions were prepared in assay buffer.
50 nl of a compound dissolved in DMSO was dispensed on Black Proxiplate™ 384 Plus Assay plates (Perkin Elmer, #6008269) and 3 μl fl-OGA enzyme mix added subsequently. Plates were pre-incubated for 60 min at room temperature and then 2 μl FM-GlcNAc substrate mix added.
Plates were briefly centrifuged for 1 min at 1000 rpm and incubate at room temperature for 6 h. To stop the reaction 5 μl STOP buffer were added and plates centrifuge again 1 min at 1000 rpm. Fluorescence was quantified in the Thermo Scientific Fluoroskan Ascent or the PerkinElmer EnVision with excitation wavelength 485 nm and emission wavelength 538 nm.
For analysis a best-fit curve is fitted by a minimum sum of squares method. From this an IC50 value and Hill coefficient was obtained. High control (no inhibitor) and low control (saturating concentrations of standard inhibitor) were used to define the minimum and maximum values.

Test [2] addresses T2, OGA (Homo sapiens, UniProt O60502).
T2 construct: HEK293 cells inducible for P301L mutant human Tau (isoform 2N4R) were established at Janssen; endogenous in cells; host or cells: HEK293 cells inducible for P301L mutant human Tau (2N4R)
T2 sequence (O60502 1-916): T1 sequence (O60502 1-916)
Put plainly: OGA cellular assay (ICC detection of O-GlcNAcylated proteins in HEK293 cells inducible for P301L mutant human Tau). It is filed as cell-based. Conditions: 6 hours incubation; for Emax: HEK293, HEK293 cells inducible for P301L mutant human Tau, maximum = Thiamet G 200 uM; for EC50: HEK293 cells inducible for P301L mutant human Tau, read-out: Cellular hOGA, pEC50 (converted). As for the experimental part:
HEK293 cells inducible for P301L mutant human Tau (isoform 2N4R) were established at Janssen. Thiamet-G was used for both plate validation (high control) and as reference compound (reference EC50 assay validation). OGA inhibition is evaluated through the immunocytochemical (ICC) detection of O-GlcNAcylated proteins by the use of a monoclonal antibody (CTD110.6; Cell Signaling, #9875) detecting 0-GlcNAcylated residues as previously described (Dorfmueller et al. 2010 Chemistry & biology, 17:1250). Inhibition of OGA will result in an increase of 0-GlcNAcylated protein levels resulting in an increased signal in the experiment. Cell nuclei are stained with Hoechst to give a cell culture quality control and a rough estimate of immediate compounds toxicity, if any. ICC pictures are imaged with a Perkin Elmer Opera Phenix plate microscope and quantified with the provided software Perkin Elmer Harmony 4.1.
Cells were propagated in DMEM high Glucose (Sigma, #D5796) following standard procedures. 2 days before the cell assay cells are split, counted and seeded in Poly-D-Lysine (PDL) coated 96-wells (Greiner, #655946) plate at a cell density of 12,000 cells per cm^2 (4,000 cells per well) in 100p of Assay Medium (Low Glucose medium is used to reduce basal levels of GlcNAcylation) (Park et al. 2014 The Journal of biological chemistry 289:13519). At the day of compound test medium from assay plates was removed and replenished with 90 μl of fresh Assay Medium. 10 μl of compounds at a 10 fold final concentration were added to the wells. Plates were centrifuged shortly before incubation in the cell incubator for 6 hours. DMSO concentration was set to 0.2%. Medium is discarded by applying vacuum. For staining of cells medium was removed and cells washed once with 100 μl D-PBS (Sigma, #D8537). From next step onwards unless other stated assay volume was always 50p and incubation was performed without agitation and at room temperature. Cells were fixed in 50 μl of a 4% paraformaldehyde (PFA, Alpha aesar, #043368) PBS solution for 15 minutes at room temperature. […] Before analysis samples were washed 2 times manually for 5 minutes in ICC base buffer.
Imaging is performed using Perkin Elmer Phenix Opera using a water 20× objective and recording 9 fields per well. Intensity readout at 488 nm is used as a measure of O-GlcNAcylation level of total proteins in wells. To assess potential toxicity of compounds nuclei were counted using the Hoechst staining. IC50-values are calculated using parametric non-linear regression model fitting. As a maximum inhibition Thiamet G at a 200 uM concentration is present on each plate. In addition, a concentration response of Thiamet G is calculated on each plate.

As for `COc1ccc(OC2CCN(C(C)c3ccc4c(n3)OCCO4)CC2)nc1` (stereo not shown) [Compound 99], in test [1], the Emax was determined as 98% and the IC50 is 158 nM. In test [2], the Emax was found to be 34% and the EC50 was over 1000 nM.

For `Cc1cc(OC2CCN([C@H](C)c3ccc4c(n3)OCC4)CC2)cc(C)n1` (single isomer, unassigned) [Compound 61], in test [1], the Emax was found to be 95% and the IC50 is 15.8 nM. In addition, in test [2], the Emax came to 87% and the EC50 was 79.4 nM.

`Cc1cc(OC2CCN(C(C)c3nc4c(cc3F)OCCO4)CC2)cc(C)n1` (stereo not shown) [Compound 4]: in test [1], the Emax came out at 99% and the IC50 was 12.6 nM. In test [2], the Emax was determined as 76% and the EC50 was 39.8 nM.

Take `CC(c1ccc2c(n1)OCCO2)N1CCC(Oc2ccnc(C#N)c2)CC1` (stereo not shown) [Compound 51]: in test [1], the maximal effect (Emax) worked out at 100% and the IC50 was 63.1 nM. In addition, in test [2], the Emax amounted to 60% and the EC50 was 631 nM.

On to `CC(c1nc2c(cc1F)OCCO2)N1CCC(Oc2ccc(C#N)cn2)CC1` (stereo not shown) [Compound 49], for which, in test [1], the Emax is 99% and the IC50 is 20 nM. In test [2], the Emax was 81% and the EC50 was 288 nM.

On to `CC(c1nc2c(cc1F)OCCO2)N1CCC(Oc2ccc(C#N)nn2)CC1` (stereo not shown) [Compound 92], for which, in test [1], the maximal response (Emax) turned out to be 97% and the IC50 is 25.1 nM. In test [2], the Emax is 66% and the EC50 is 126 nM.

On to `Cc1ccc(COC2CCN(C(C)c3nc4c(cc3F)OCCO4)CC2)cn1` (stereo not shown) [Compound 138], for which, in test [1], the Emax is 100% and the IC50 was 20 nM. In test [2], the Emax worked out at 79% and the EC50 is 158 nM.

Consider `Cc1cc(OC2CCN(C(C)c3ccc4c(n3)OCCO4)CC2)c(Cl)c(C)n1` (stereo not shown) [Compound 66], for which, in test [1], the Emax was found to be 96% and the IC50 is 79.4 nM. For the same molecule, in test [2], the Emax amounted to 73% and the EC50 is 251 nM.

As to `CC(c1ccc2c(n1)OCCO2)N1CCC(Oc2cnc(C(F)(F)F)cn2)CC1` (stereo not shown) [Compound 114], in test [1], the Emax came to 97% and the IC50 was 316 nM. In test [2], the Emax worked out at 31% and the EC50 was over 1000 nM.

With `Cc1cc(OC2CCN(C(C)c3nc4c(cc3F)OCCO4)CC2)cnc1C` (stereo not shown) [Compound 166], in test [1], the Emax is 98% and the IC50 is 10 nM. For the same molecule, in test [2], the Emax is 85% and the EC50 is 63.1 nM.

Consider `CC(c1ccc2c(n1)OCCO2)N1CCC(Oc2ncccc2C#N)CC1` (stereo not shown) [Compound 50], for which, in test [1], the Emax stood at 95% and the IC50 was 1000 nM. Further, in test [2], the Emax was 9% and the EC50 was over 1000 nM.

With `Cc1cc(OC2CCN(C(C)c3nc4c(cc3F)OCCO4)CC2)cc(C(F)(F)F)n1` (stereo not shown) [Compound 18], in test [1], the Emax was 101% and the IC50 is 6.31 nM. In test [2], the maximal response (Emax) was 79% and the EC50 was 63.1 nM.

Turning to `Cc1ccnc(OC2CCN(C(C)c3ccc4c(n3)OCCO4)CC2)c1` (stereo not shown) [Compound 44], in test [1], the Emax was 98% and the IC50 was 200 nM. Besides, in test [2], the Emax stood at 57% and the EC50 was 501 nM.

`Cc1cnnc(OC2CCN(C(C)c3ccc4c(n3)OCCO4)CC2)c1` (stereo not shown) [Compound 77]: in test [1], the Emax is 97% and the IC50 is 200 nM. Further, in test [2], the Emax worked out at 35% and the EC50 was over 1000 nM.

Take `Cc1nccnc1OC1CCN(C(C)c2nc3c(cc2F)OCCO3)CC1` (stereo not shown) [Compound 111]: in test [1], the Emax was found to be 98% and the IC50 was 50.1 nM. Also, in test [2], the Emax came to 77% and the EC50 is 200 nM.

Take `Cc1cc(COC2CCN(Cc3ccc4sc(C)nc4n3)CC2)cc(C)n1` [Compound 36]: in test [1], the Emax came out at 90% and the IC50 was 1260 nM. In test [2], the maximum response (Emax) is 7% and the EC50 is over 1000 nM.
